In this test the target is T1, firefly luciferase enzyme (FLuc) (Photinus pyralis, UniProt P08659).
T1 construct: commercial purified enzyme (Promega E1701)
Put plainly: bioluminescence read-out, 384-well plate. In kind it is biochemical. The settings on record: 10 µM ATP with 10 µM D-luciferin, 5 mM MgSO4; ATP and Mg needed for signal.

Structures are written as SMILES.

The results in this text go back to paper PMC11628255, “Interference of metal ions on the bioluminescent signal of firefly, Renilla, and NanoLuc luciferases in high-throughput screening assays” (Frontiers in Chemistry, 2024).

T1 sequence (P08659 whole entry): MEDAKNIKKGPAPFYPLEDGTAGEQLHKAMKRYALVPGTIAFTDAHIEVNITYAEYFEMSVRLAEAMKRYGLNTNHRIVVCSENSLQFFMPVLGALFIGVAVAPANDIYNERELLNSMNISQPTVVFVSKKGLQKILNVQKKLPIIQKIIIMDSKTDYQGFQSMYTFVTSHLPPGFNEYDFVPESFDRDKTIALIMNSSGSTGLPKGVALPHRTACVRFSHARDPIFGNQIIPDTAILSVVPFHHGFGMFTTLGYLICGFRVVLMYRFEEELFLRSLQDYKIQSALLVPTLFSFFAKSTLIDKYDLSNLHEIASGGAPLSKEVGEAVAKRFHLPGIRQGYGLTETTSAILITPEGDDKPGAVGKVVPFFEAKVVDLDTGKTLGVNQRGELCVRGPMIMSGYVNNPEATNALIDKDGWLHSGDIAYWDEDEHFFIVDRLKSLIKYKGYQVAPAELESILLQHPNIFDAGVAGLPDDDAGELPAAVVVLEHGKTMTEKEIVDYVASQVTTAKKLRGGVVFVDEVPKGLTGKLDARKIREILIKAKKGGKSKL

Regarding `Nc1ncnc2c1ncn2[C@@H]1O[C@H](COP(=O)(O)OP(=O)(O)OP(=O)(O)O)[C@@H](O)[C@H]1O` [ATP], the “bioluminescence read-out, 384-well plate” value was “both ATP and Mg still need to be present in the FLuc reaction buffer”.
